Literature values as cited in patent US20190321395A1, “TREATMENT OF PSORIASIS, SEBORRHEIC DERMATITIS, AND ECZEMA OF THE HEAD AND NECK” (Oread Therapeutics, priority 2018, published 2019).

Row | SMILES | Water Solubility [mg/mL]
1 | CC(=O)N1CCN(c2ccc(OCC3COC(Cn4ccnc4)(c4ccc(Cl)cc4Cl)O3)cc2)CC1 (centres unmarked) [Ketoconazole] | 0.0009
2 | [O-][n+]1ccccc1[S-].[O-][n+]1ccccc1[S-].[Zn+2] [Pyrithione Zinc] | 0.086
